Measured values as given in ChEMBL document CHEMBL1909046, “DrugMatrix in vitro pharmacology data”.

Experiments:
[1] = DRUGMATRIX: Phorbol Ester radioligand binding (ligand: [3H] PDBu); assay type: cell membranes, Mus musculus, ICR, Brain, Membrane; conditions: Not Active = under 50% inhibition at 10 µM
[2] = target: T1, Polyunsaturated fatty acid lipoxygenase ALOX15 (Oryctolagus cuniculus, UniProt P12530); assay: biochemical; assay type: tissue-based, Reticulocytes;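 also: inhibition of 15-lipoxygenase enzyme activity measured with linoleic acid as the substrate; in other assays of this panel Not Active means under 50% inhibition at 10 µM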
T1 sequence (P12530 whole entry): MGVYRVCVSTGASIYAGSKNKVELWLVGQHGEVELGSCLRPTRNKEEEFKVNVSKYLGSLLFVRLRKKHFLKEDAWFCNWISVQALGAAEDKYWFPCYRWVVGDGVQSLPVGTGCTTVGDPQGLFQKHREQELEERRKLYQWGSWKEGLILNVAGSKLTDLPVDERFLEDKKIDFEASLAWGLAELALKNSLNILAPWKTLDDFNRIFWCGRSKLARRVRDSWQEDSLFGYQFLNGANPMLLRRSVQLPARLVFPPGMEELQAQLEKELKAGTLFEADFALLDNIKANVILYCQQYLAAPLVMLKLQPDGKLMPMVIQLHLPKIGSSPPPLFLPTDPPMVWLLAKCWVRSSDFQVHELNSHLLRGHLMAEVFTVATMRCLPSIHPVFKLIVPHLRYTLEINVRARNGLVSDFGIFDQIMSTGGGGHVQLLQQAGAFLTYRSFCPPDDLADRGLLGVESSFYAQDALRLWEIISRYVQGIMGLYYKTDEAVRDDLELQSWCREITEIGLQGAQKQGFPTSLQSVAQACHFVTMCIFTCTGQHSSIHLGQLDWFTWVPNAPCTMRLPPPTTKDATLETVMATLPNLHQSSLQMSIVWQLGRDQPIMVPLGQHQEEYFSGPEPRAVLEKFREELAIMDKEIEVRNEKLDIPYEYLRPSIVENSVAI

Interstitial collagenase = target: T2, Interstitial collagenase (Homo sapiens, UniProt P03956); assay: biochemical; assay type: tissue-based, Rheumatoid synovial fibroblasts;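 also: MMP-1 enzyme inhibition assay using a peptide substrate; in other assays of this panel Not Active means under 50% inhibition at 10 µM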
T2 sequence (P03956 whole entry): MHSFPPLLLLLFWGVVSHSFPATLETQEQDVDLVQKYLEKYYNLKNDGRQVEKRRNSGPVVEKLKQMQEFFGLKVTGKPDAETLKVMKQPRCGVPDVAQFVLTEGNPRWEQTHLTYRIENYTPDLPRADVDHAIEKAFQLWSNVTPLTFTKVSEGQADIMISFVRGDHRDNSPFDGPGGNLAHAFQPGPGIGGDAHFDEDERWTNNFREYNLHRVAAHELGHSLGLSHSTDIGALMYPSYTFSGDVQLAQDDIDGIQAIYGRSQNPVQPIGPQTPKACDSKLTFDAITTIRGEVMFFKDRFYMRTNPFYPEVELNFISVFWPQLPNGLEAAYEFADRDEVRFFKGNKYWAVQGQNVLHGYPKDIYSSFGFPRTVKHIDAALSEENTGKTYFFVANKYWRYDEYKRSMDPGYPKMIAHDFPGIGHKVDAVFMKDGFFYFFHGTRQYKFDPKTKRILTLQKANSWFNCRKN

Vasopressin V1a receptor = Vasopressin V1a receptor (Homo sapiens, UniProt P37288); assay type: cell membranes, Membrane; conditions: hek293; also: in other assays of this panel Not Active means under 50% inhibition at 10 µM
Chain of Vasopressin V1a receptor (P37288 whole entry): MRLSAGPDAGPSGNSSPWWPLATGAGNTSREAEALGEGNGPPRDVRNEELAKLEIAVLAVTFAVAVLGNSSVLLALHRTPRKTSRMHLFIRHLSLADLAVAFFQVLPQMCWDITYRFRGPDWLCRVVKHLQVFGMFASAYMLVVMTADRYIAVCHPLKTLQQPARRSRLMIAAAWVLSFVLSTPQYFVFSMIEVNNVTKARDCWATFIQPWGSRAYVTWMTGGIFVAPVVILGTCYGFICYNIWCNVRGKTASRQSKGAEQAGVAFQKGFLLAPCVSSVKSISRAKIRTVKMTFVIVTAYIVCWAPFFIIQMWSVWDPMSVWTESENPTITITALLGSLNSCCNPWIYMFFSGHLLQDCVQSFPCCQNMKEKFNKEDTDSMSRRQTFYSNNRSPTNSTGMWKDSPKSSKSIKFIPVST

[3] = DRUGMATRIX: Platelet-Derived Growth Factor (PDGF) radioligand binding (ligand: [125I] PDGF); assay type: cell-based; conditions: nih3t3; Not Active = under 50% inhibition at 10 µM
Nitric oxide synthase 1 = Nitric oxide synthase 1 (Rattus norvegicus, UniProt P29476); assay type: tissue-based, Cerebellum; also: in other assays of this panel Not Active means under 50% inhibition at 10 µM
Chain of Nitric oxide synthase 1 (P29476 whole entry): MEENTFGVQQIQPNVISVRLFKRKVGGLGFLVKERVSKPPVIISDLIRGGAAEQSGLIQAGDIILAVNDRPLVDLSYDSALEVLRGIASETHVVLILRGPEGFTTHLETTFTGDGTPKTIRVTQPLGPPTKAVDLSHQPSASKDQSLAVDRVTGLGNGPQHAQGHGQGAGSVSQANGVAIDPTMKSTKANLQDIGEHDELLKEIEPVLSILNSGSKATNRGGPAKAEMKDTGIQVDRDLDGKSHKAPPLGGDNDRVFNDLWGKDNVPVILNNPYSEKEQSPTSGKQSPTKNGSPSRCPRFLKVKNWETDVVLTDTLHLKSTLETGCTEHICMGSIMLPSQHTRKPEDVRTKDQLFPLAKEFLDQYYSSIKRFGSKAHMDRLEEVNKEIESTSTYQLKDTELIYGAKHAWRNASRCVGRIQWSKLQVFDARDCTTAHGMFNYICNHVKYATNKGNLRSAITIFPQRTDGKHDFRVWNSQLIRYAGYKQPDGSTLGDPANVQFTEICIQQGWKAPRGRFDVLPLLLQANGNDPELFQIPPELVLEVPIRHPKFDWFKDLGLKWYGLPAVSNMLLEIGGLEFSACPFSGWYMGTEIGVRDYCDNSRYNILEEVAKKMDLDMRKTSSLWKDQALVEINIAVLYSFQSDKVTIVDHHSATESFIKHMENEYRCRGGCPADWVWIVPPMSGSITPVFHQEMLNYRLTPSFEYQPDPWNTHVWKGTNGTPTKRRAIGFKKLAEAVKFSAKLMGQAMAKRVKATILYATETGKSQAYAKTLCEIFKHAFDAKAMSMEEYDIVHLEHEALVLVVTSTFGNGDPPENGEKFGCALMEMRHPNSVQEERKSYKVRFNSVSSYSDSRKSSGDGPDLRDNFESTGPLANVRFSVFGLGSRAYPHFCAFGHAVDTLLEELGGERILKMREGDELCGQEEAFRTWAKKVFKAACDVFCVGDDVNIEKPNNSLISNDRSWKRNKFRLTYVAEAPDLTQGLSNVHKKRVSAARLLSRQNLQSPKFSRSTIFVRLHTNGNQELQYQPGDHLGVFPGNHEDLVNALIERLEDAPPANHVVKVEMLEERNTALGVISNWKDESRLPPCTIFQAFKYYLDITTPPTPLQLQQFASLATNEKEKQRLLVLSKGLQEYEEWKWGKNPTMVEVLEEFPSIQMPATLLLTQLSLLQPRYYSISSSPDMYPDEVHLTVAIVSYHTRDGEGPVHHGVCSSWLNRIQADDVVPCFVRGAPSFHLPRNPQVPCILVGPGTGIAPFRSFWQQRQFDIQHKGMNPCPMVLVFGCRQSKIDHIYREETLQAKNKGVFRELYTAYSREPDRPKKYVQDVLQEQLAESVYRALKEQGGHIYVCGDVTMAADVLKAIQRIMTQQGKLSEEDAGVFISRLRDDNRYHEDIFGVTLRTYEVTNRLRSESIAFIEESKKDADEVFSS

[4] = DRUGMATRIX: Calcium Channel Type L, Benzothiazepine radioligand binding (ligand: [3H] Diltiazem); assay type: cell membranes, Rattus norvegicus, Wistar, Brain, Membrane; conditions: Not Active = under 50% inhibition at 10 µM
Estrogen receptor = target: T3, Estrogen receptor (Homo sapiens, UniProt P03372); conditions: sf9; also: in other assays of this panel Not Active means under 50% inhibition at 10 µM
T3 sequence (P03372 whole entry): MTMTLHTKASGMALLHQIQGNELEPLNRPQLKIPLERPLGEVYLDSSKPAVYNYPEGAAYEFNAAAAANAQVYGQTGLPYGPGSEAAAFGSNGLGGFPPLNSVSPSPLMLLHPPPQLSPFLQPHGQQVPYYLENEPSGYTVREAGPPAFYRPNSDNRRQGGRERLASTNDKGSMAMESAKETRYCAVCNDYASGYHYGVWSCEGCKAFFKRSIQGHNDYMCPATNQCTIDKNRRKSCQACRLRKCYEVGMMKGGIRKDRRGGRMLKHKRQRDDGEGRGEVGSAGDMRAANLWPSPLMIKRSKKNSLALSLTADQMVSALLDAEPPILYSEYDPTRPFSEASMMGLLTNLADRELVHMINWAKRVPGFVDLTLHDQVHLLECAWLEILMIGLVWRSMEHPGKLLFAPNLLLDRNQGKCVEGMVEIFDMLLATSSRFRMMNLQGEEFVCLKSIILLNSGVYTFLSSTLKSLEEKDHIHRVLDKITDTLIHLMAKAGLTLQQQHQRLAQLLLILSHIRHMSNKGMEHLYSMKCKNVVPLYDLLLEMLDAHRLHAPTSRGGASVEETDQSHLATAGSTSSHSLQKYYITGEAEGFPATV

Which IC50 [1] does the source give for `COc1c(C)c2c(c(O)c1C/C=C(\C)CCC(=O)O)C(=O)OC2` [MYCOPHENOLIC ACID] here?
Its IC50 is “Not Active”.

And the Ki [1]?
The Ki was “Not Active”.

What about the IC50 ([2]; reticulocytes) of the same compound?
The IC50 was “Not Active”.

And the IC50 (Interstitial collagenase)?
Its IC50 is “Not Active”.

And the IC50 (Vasopressin V1a receptor)?
Its IC50 is “Not Active”.

What about the IC50 [3] of the same compound?
Its IC50 is “Not Active”.

And the Ki [3]?
Its Ki is “Not Active”.

And the IC50 (Nitric oxide synthase 1)?
The IC50 was “Not Active”.

And the IC50 [4]?
Its IC50 is “Not Active”.

And the Ki [4]?
The Ki was “Not Active”.

What about the IC50 (Estrogen receptor) of the same compound?
Its IC50 is “Not Active”.

Which results are given for `O=c1ncn2nc(Sc3ccc(F)cc3F)ccc2c1-c1c(Cl)cccc1Cl` [NEFLAMAPIMOD]?
IC50 [1]: Not Active; Ki [1]: Not Active; IC50 ([2]; reticulocytes): Not Active; IC50 (Interstitial collagenase): Not Active; IC50 (Vasopressin V1a receptor): Not Active; IC50 [3]: Not Active; Ki [3]: Not Active; IC50 (Nitric oxide synthase 1): Not Active; IC50 [4]: Not Active; Ki [4]: Not Active; IC50 (Estrogen receptor): Not Active

Which IC50 [1] does the source give for `Nc1nc2ccc(OC(F)(F)F)cc2s1` [RILUZOLE] here?
Its IC50 is “Not Active”.

And the Ki [1]?
Its Ki is “Not Active”.

What about the IC50 ([2]; reticulocytes) of the same compound?
Its IC50 is “Not Active”.

What about the IC50 (Interstitial collagenase) of the same compound?
The IC50 was “Not Active”.

And the IC50 (Vasopressin V1a receptor)?
Its IC50 is “Not Active”.

What about the IC50 [3] of the same compound?
Its IC50 is “Not Active”.

And the Ki [3]?
The Ki was “Not Active”.

And the IC50 (Nitric oxide synthase 1)?
The IC50 was “Not Active”.

What about the IC50 [4] of the same compound?
The IC50 was “Not Active”.

What about the Ki [4] of the same compound?
The Ki was “Not Active”.

And the IC50 (Estrogen receptor)?
The IC50 was “Not Active”.

Which IC50 [1] does the source give for `C=CCC1(C(C)CCC)C(=O)NC(=O)NC1=O` (stereo unspecified) [SECOBARBITAL] here?
The IC50 was “Not Active”.

And the Ki [1]?
The Ki was “Not Active”.

And the IC50 ([2]; reticulocytes)?
Its IC50 is “Not Active”.

And the IC50 (Interstitial collagenase)?
The IC50 was “Not Active”.

What about the IC50 (Vasopressin V1a receptor) of the same compound?
The IC50 was “Not Active”.

What about the IC50 [3] of the same compound?
Its IC50 is “Not Active”.

What about the Ki [3] of the same compound?
The Ki was “Not Active”.

And the IC50 (Nitric oxide synthase 1)?
The IC50 was “Not Active”.

And the IC50 [4]?
The IC50 was “Not Active”.

What about the Ki [4] of the same compound?
The Ki was “Not Active”.

What about the IC50 (Estrogen receptor) of the same compound?
Its IC50 is “Not Active”.

Which IC50 [1] does the source give for `C[C@@H]1CN(c2c(F)c(N)c3c(=O)c(C(=O)O)cn(C4CC4)c3c2F)C[C@H](C)N1` [SPARFLOXACIN] here?
The IC50 was “Not Active”.

What about the Ki [1] of the same compound?
Its Ki is “Not Active”.

And the IC50 ([2]; reticulocytes)?
The IC50 was “Not Active”.

What about the IC50 (Interstitial collagenase) of the same compound?
The IC50 was “Not Active”.

What about the IC50 (Vasopressin V1a receptor) of the same compound?
Its IC50 is “Not Active”.

And the IC50 [3]?
Its IC50 is “Not Active”.

What about the Ki [3] of the same compound?
The Ki was “Not Active”.

And the IC50 (Nitric oxide synthase 1)?
Its IC50 is “Not Active”.

And the IC50 [4]?
Its IC50 is “Not Active”.

And the Ki [4]?
The Ki was “Not Active”.

And the IC50 (Estrogen receptor)?
The IC50 was “Not Active”.

For `Cc1noc(NS(=O)(=O)c2ccc(N)cc2)c1C` [SULFISOXAZOLE], which IC50 [1] is on record?
Its IC50 is “Not Active”.

And the Ki [1]?
Its Ki is “Not Active”.

And the IC50 ([2]; reticulocytes)?
Its IC50 is “Not Active”.

And the IC50 (Interstitial collagenase)?
The IC50 was “Not Active”.

What about the IC50 (Vasopressin V1a receptor) of the same compound?
Its IC50 is “Not Active”.

And the IC50 [3]?
The IC50 was “Not Active”.

And the Ki [3]?
Its Ki is “Not Active”.

And the IC50 (Nitric oxide synthase 1)?
Its IC50 is “Not Active”.

What about the IC50 [4] of the same compound?
Its IC50 is “Not Active”.

And the Ki [4]?
The Ki was “Not Active”.

And the IC50 (Estrogen receptor)?
Its IC50 is “Not Active”.

What does the source list for `CSc1ccc(/C=C2/C(C)=C(CC(=O)O)c3cc(F)ccc32)cc1` [SULINDAC SULFIDE]?
IC50 [1]: Not Active; Ki [1]: Not Active; IC50 ([2]; reticulocytes): Not Active; IC50 (Interstitial collagenase): Not Active; IC50 (Vasopressin V1a receptor): Not Active; IC50 [3]: Not Active; Ki [3]: Not Active; IC50 (Nitric oxide synthase 1): Not Active; IC50 [4]: Not Active; Ki [4]: Not Active; IC50 (Estrogen receptor): Not Active

Which results are given for `Nc1c2c(nc3ccccc13)CCCC2` [TACRINE]?
IC50 [1]: Not Active; Ki [1]: Not Active; IC50 ([2]; reticulocytes): Not Active; IC50 (Interstitial collagenase): Not Active; IC50 (Vasopressin V1a receptor): Not Active; IC50 [3]: Not Active; Ki [3]: Not Active; IC50 (Nitric oxide synthase 1): Not Active; IC50 [4]: Not Active; Ki [4]: Not Active; IC50 (Estrogen receptor): Not Active

What does the source list for `Nc1nc2nc[nH]c2c(=S)[nH]1` [THIOGUANINE]?
IC50 [1]: Not Active; Ki [1]: Not Active; IC50 ([2]; read-out: IC50): 16.2 µM; IC50 (Interstitial collagenase): Not Active; IC50 (Vasopressin V1a receptor): Not Active; IC50 [3]: Not Active; Ki [3]: Not Active; IC50 (Nitric oxide synthase 1): Not Active; IC50 [4]: Not Active; Ki [4]: Not Active; IC50 (Estrogen receptor): Not Active

For `Cc1cccc(N(C)C(=S)Oc2ccc3ccccc3c2)c1` [TOLNAFTATE], which IC50 [1] is on record?
The IC50 was “Not Active”.

And the Ki [1]?
Its Ki is “Not Active”.

What about the IC50 ([2]; reticulocytes) of the same compound?
Its IC50 is “Not Active”.

What about the IC50 (Interstitial collagenase) of the same compound?
The IC50 was “Not Active”.

And the IC50 (Vasopressin V1a receptor)?
The IC50 was “Not Active”.

And the IC50 [3]?
The IC50 was “Not Active”.

What about the Ki [3] of the same compound?
The Ki was “Not Active”.

What about the IC50 (Nitric oxide synthase 1) of the same compound?
Its IC50 is “Not Active”.

What about the IC50 [4] of the same compound?
The IC50 was “Not Active”.

And the Ki [4]?
Its Ki is “Not Active”.

What about the IC50 (Estrogen receptor) of the same compound?
The IC50 was “Not Active”.

Which IC50 [1] does the source give for `NC[C@H]1CC[C@H](C(=O)O)CC1` [TRANEXAMIC ACID] here?
The IC50 was “Not Active”.

What about the Ki [1] of the same compound?
Its Ki is “Not Active”.

And the IC50 ([2]; reticulocytes)?
Its IC50 is “Not Active”.

What about the IC50 (Interstitial collagenase) of the same compound?
Its IC50 is “Not Active”.

And the IC50 (Vasopressin V1a receptor)?
Its IC50 is “Not Active”.

And the IC50 [3]?
The IC50 was “Not Active”.

What about the Ki [3] of the same compound?
Its Ki is “Not Active”.

What about the IC50 (Nitric oxide synthase 1) of the same compound?
The IC50 was “Not Active”.

And the IC50 [4]?
Its IC50 is “Not Active”.

And the Ki [4]?
Its Ki is “Not Active”.

What about the IC50 (Estrogen receptor) of the same compound?
Its IC50 is “Not Active”.
